Among the data in patent publication US20160244437A1, “SUBSTITUTED PHENYLALANINE DERIVATIVES” (BAYER PHARMA AKTIENGESELLSCHAFT, priority 2013, published 2016) are IC50 and aPTT values, retold here.

Counter-ions that a name gives are not always drawn.

The target in experiment [1] is T1, human factor XIa (Homo sapiens, UniProt P03951).
T1 construct: purchased Kordia
Nature of the experiment: Measurement of FXIa inhibition (fluorogenic peptide substrate Boc-Glu(OBzl)-Ala-Arg-AMC). The conditions noted are these: factor XIa from Kordia 0.45 nM, 15 min pre-incubation, 30 min at 22° C., fluorescence. It is filed as biochemical.

The test system of experiment [2] is human and animal plasma. Nature of the experiment: Determination of anticoagulatory activity: activated partial thromboplastin time (aPTT) in plasma. The conditions noted are these: concentration of test substance which brings about a 1.5-fold extension of the aPTT; plasma in vitro, C.K. Prest kit. A digest of the protocol: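 Citrated plasma (human, mouse, rat, rabbit, pig, dog) incubated with varying compound concentrations and cephalin/kaolin PTT reagent for 3 minutes at 37° C.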

Usually IC50 stands for the concentration needed to halve the response being measured.

T1 sequence (P03951 388-625 limits assumed): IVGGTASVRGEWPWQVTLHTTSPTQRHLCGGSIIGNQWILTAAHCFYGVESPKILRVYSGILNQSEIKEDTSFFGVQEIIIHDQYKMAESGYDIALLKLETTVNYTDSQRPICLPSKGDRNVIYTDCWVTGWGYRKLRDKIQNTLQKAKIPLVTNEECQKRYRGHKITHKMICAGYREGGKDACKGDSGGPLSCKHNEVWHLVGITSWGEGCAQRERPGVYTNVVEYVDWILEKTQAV
T1 sequence (P03951 19-387 partner limits assumed): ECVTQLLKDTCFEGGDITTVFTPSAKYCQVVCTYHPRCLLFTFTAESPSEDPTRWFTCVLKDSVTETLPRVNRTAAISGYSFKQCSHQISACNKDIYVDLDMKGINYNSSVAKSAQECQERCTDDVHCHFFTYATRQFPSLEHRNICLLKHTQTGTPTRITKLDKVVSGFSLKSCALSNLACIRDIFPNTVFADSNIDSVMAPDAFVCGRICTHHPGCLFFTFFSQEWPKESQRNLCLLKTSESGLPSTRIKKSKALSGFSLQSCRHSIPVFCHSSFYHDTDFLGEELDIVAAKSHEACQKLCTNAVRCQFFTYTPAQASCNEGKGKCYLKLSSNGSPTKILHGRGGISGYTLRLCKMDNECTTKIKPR

On to `NC[C@H]1CC[C@H](C(=O)N[C@@H](Cc2cccc(-c3cnc(N4CCOCC4)nc3)c2)C(=O)Nc2ccc(-c3n[nH]c(C(F)(F)C(F)(F)C(=O)O)n3)cc2)CC1` [Example 96, 3-(3-{4-[(N-{[trans-4-(Aminomethyl)cyclohexyl]carbonyl}-3-[2-(morpholin-4-yl)pyrimidin-5-yl]-L-phenylalanyl)amino]phenyl}-1H-1,2,4-triazol-5-yl)-2,2,3,3-tetrafluoropropanoic acid hydrochloride], for which, in experiment [1], the IC50 came to 3.3 nM. Besides, the aPTT in experiment [2] worked out at 0.19 µmol/L.
As for `Cc1cc(N)ccc1-c1cccc(C[C@H](NC(=O)[C@H]2CC[C@H](CN)CC2)C(=O)Nc2ccc(-c3nnn[nH]3)cc2)c1` [Example 97, trans-4-(Aminomethyl)-N-[(2S)-3-(4′-amino-2′-methylbiphenyl-3-yl)-1-oxo-1-{[4-(1H-tetrazol-5-yl)phenyl]amino}propan-2-yl]cyclohexanecarboxamide hydrochloride], in experiment [1], the IC50 was found to be 2.1 nM. The molecule also displayed an aPTT in experiment [2] of 0.12 µmol/L.
Consider `Cc1nc(O)ccc1-c1cccc(C[C@H](NC(=O)[C@H]2CC[C@H](CN)CC2)C(=O)Nc2ccc(-c3nnn[nH]3)cc2)c1` [Example 98, N-alpha-{[trans-4-(Aminomethyl)cyclohexyl]carbonyl)}-3-(6-hydroxy-2-methylpyridin-3-yl)-N-[4-(1H-tetrazol-5-yl)phenyl]-L-phenylalaninamide hydrochloride], for which inhibition in experiment [1] was half-maximal at 5.4 nM (IC50). The same molecule gave an aPTT in experiment [2] of 0.2 µmol/L.
In the case of `CN(C)CCCOc1ccc(-c2cccc(C[C@H](NC(=O)[C@H]3CC[C@H](CN)CC3)C(=O)Nc3ccc4[nH]c(=O)[nH]c4c3)c2)cn1` [Example 100, N-alpha-{[trans-4-(Aminomethyl)cyclohexyl]carbonyl}-3-{6-[3-(dimethylamino)propoxy]pyridin-3-yl}-N-(2-oxo-2,3-dihydro-1H-benzimidazol-5-yl)-L-phenylalaninamide hydrochloride], the IC50 in experiment [1] was 59 nM. The same molecule showed an aPTT in experiment [2] of 0.34 µmol/L.
On to `CN(C)CCCOc1ccc(-c2cccc(C[C@H](NC(=O)[C@H]3CC[C@H](CN)CC3)C(=O)Nc3ccc(-c4nnc(C(F)(F)F)[nH]4)cc3)c2)cn1` [Example 101, N-alpha-{[trans-4-(Aminomethyl)cyclohexyl]carbonyl}-3-{6-[3-(dimethylamino)propoxy]pyridin-3-yl}-N-{4-[3-(trifluoromethyl)-4H-1,2,4-triazol-5-yl]phenyl}-L-phenylalaninamide hydrochloride], for which the IC50 in experiment [1] was 14 nM. In experiment [2], this molecule registered an aPTT of 0.43 µmol/L.
`Cc1cc(N2CCOCC2)ncc1-c1cccc(C[C@H](NC(=O)[C@H]2CC[C@H](CN)CC2)C(=O)Nc2ccc(-c3nnc(Cl)[nH]3)cc2)c1` [Example 102, N-alpha-{[trans-4-(Aminomethyl)cyclohexyl]carbonyl}-N-[4-(3-chloro-4H-1,2,4-triazol-5-yl)phenyl]-3-[4-methyl-6-(morpholin-4-yl)pyridin-3-yl]-L-phenylalaninamide hydrochloride] came in with an IC50 in experiment [1] of 2.2 nM. The molecule also displayed an aPTT in experiment [2] of 0.43 µmol/L.
In experiment [1], `Cc1ccc(N)cc1-c1cccc(C[C@H](NC(=O)[C@H]2CC[C@H](CN)CC2)C(=O)Nc2ccc(-c3nnn[nH]3)cc2)c1` [Example 103, trans-4-(Aminomethyl)-N-[(2S)-3-(5′-amino-2′-methylbiphenyl-3-yl)-1-oxo-1-{[4-(1H-tetrazol-5-yl)phenyl]amino}propan-2-yl]cyclohexanecarboxamide hydrochloride] showed an IC50 of 3.3 nM. In experiment [2], this molecule had an aPTT of 0.1 µmol/L.
The like results for `COCc1nnc(-c2ccc(NC(=O)[C@H](Cc3cccc(-c4cccc5ncccc45)c3)NC(=O)[C@H]3CC[C@H](CN)CC3)cc2)[nH]1` [Example 105, N-alpha-{[trans-4-(Aminomethyl)cyclohexyl]carbonyl}-3-quinolin-5-yl-N-{4-[5-(methoxymethyl)-4H-1,2,4-triazol-3-yl]phenyl}-L-phenylalaninamide hydrochloride] were, in that order, 13 nM and 0.14 µmol/L.
Regarding `NC[C@H]1CC[C@H](C(=O)N[C@@H](Cc2cccc(-c3cncc(S(=O)(=O)NC4CCNCC4)c3)c2)C(=O)Nc2ccc(-c3nnc(Cl)[nH]3)cc2)CC1` [Example 106, N-alpha-{[trans-4-(Aminomethyl)cyclohexyl]carbonyl}-N-[4-(3-chloro-4H-1,2,4-triazol-5-yl)phenyl]-3-[5-(piperidin-4-ylsulphamoyl)pyridin-3-yl]-L-phenylalaninamide hydrochloride], the midpoint of inhibition in experiment [1], the IC50, lay at 5.7 nM. The aPTT in experiment [2] came to 0.13 µmol/L.
In the same order, the values of `NC[C@H]1CC[C@H](C(=O)N[C@@H](Cc2cccc(-c3cnccc3Cl)c2)C(=O)Nc2ccc(-c3noc(=O)[nH]3)cc2)CC1` [Example 107, N-alpha-{[trans-4-(Aminomethyl)cyclohexyl]carbonyl}-3-(4-chloropyridin-3-yl)-N-[4-(5-oxo-4,5-dihydro-1,2,4-oxadiazol-3-yl)phenyl]-L-phenylalaninamide hydrochloride] are 6.2 nM and 0.7 µmol/L.
In experiment [1], `CN(C)CCCOc1ccc(-c2cccc(C[C@H](NC(=O)[C@H]3CC[C@H](CN)CC3)C(=O)Nc3ccc(-c4nc(C(F)(F)C(F)(F)C(F)(F)C(=O)O)n[nH]4)cc3)c2)cn1` [Example 108, 4-(5-{4-[(N-{[trans-4-(Aminomethyl)cyclohexyl]carbonyl}-3-{6-[3-(dimethylamino)propoxy]pyridin-3-yl}-L-phenylalanyl)amino]phenyl}-1H-1,2,4-triazol-3-yl)-2,2,3,3,4,4-hexafluorobutanoic acid hydrochloride] showed an IC50 of 5.5 nM. In addition, the aPTT in experiment [2] came out at 0.25 µmol/L.
As for `CN(C)CCCOc1ccc(-c2cccc(C[C@H](NC(=O)[C@H]3CC[C@H](CN)CC3)C(=O)Nc3ccc(-c4nc(C(F)(F)C(F)(F)C(=O)O)n[nH]4)cc3)c2)cn1` [Example 109, hydrochloride], the IC50 in experiment [1] was 6 nM. Further, the aPTT in experiment [2] came out at 0.16 µmol/L.
